The values that follow come from PubChem BioAssay (NCI).

“And” between values parts separate entries of the source, which are not always exact repeats. Equal values may be shown once.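 Tested at 5 concentrations; 48 h exposure; 96-well plates; endpoints linearly interpolated, else capped at highest concentration. GI50 = concentration required for 50% inhibition of growth. TGI denotes the concentration required for complete inhibition of growth.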

What all share (assay): NCI-60 cell line screen, 48 h
Test [1] has as its system SW-620 colon.
Test [2] deals with SK-MEL-2 melanoma.
The test system of test [3] is RPMI-8226 leukemia.
The subject of test [4] is HOP-92 NSCLC.
Test [5] relates to A549 NSCLC.
Test [6] deals with LOX IMVI melanoma.
For test [7], the system named is OVCAR-5 ovarian.
For test [8], the system named is 786-0 renal.
For test [9], the system named is BT-549 breast.
Test [10] relates to MOLT-4 leukemia.

With `O=C(/C=C/c1ccc(C(F)(F)F)cc1)c1ccc(Nc2nc(NCCO)nc(Nc3ccc(Cl)cc3)n2)cc1`, the GI50 was 2.17 µM in [1]; 11.7 µM in [2]; 1.56 µM in test [3]; 5.39 µM in [4]; 3.48 µM in test [5]; 1.66 µM in test [6]. The GI50 in [7] was 5.93 µM; in test [8], 2.25 µM; in test [9], 3.07 µM; in test [10], 3.56 µM. Further, the TGI in [1] was determined as 5.04 µM; in test [2], 24.5 µM; in test [3] it was 5.43 µM; in test [4], 49.4 µM; in [5], 13.5 µM; in test [6], 3.22 µM. The TGI was 18.8 µM in [7], 5.36 µM in test [8], 7.97 µM in [9] and 12.6 µM in test [10].
As to `O=c1c(O)c(-c2cc(O)c(O)c(O)c2)oc2cc(O)cc(O)c12`, the TGI was 36 µM in test [1]; over 100 µM in test [2]; over 100 µM in test [3]; over 100 µM in [4]; over 100 µM in test [5]; 31 µM in test [6]. The TGI in test [7] was over 100 µM; in [8], 44.8 µM; in [9] it was over 100 µM; in test [10], over 100 µM.
`C#CCOc1cccc(Nc2ncnc3cc(NC(=O)CCl)ccc23)c1`: the GI50 in [1] is 1.23 µM; in test [2] it was 12.4 µM; in test [3], 3.44 µM; in test [4] it was 12.4 µM; in test [5] it was 5.03 µM; in test [6], 1.19 µM. Besides, the GI50 in [7] was 10.3 µM; in test [8], 4.68 µM; in test [9] it was 6.08 µM; in [10], 1.96 µM. Further, the TGI in test [1] is 3.25 µM; in test [2], 27.4 µM; in [3] it was 10.4 µM; in [4] it was 27.3 µM; in test [5], 17.9 µM; in test [6], 2.7 µM. For the same molecule, the TGI is 23 µM in test [7], 18.5 µM in test [8], 20.3 µM in test [9] and 7.42 µM in test [10].
In the case of `COc1cc(Nc2ncc(F)c(Nc3ccc4c(n3)N(COP(=O)(O)O)C(=O)C(C)(C)O4)n2)cc(OC)c1OC`, the GI50 in test [1] is 3.6 µM and 3.98 µM; in test [2] it was 5.81 µM; in [3] it was 3.55 µM and 4.34 µM; in test [4], 1.25 µM and 0.345 µM; in test [5], 2.27 µM and 2.11 µM; in test [6], 1.38 µM and 1.09 µM. Moreover, the GI50 in test [7] is 1.7 µM and 1.38 µM; in test [8], 1.32 µM and 0.858 µM; in test [9] it was 1.56 µM and 1.57 µM; in test [10], 3.54 µM and 3.05 µM. The TGI in test [1] is over 84.4 µM; in test [2], 53.3 µM and > 10 µM; in [3] it was over 31.3 µM; in test [4], 4.23 µM and 1.87 µM; in test [5], over 26.8 µM; in test [6] it was 2.99 µM and 2.46 µM. The TGI in test [7] is 9.62 µM and > 10 µM; in [8], 6.53 µM and 2.86 µM; in [9] it was 4.45 µM and 6.5 µM; in test [10] it was over 62 µM.
Consider `CCN(CC)c1ccc(C(=O)c2ccc(N(CC)CC)cc2)cc1`, for which the GI50 in [1] is 0.326 µM; in test [2] it was 0.493 µM; in test [3], 0.519 µM; in test [4], 0.776 µM; in test [5], 0.607 µM; in test [6], 0.62 µM. Also, the GI50 in test [7] is 4.1 µM; in test [8] it was 0.668 µM; in test [9], 0.629 µM; in [10], 0.718 µM. The TGI is 17 µM in test [1]; 14.9 µM in test [2]; 6.25 µM in [3]; 10.9 µM in test [4]; over 58.1 µM in test [5]; 28.3 µM in [6]. For the same molecule, the TGI in test [7] was over 100 µM; in [8], 28.3 µM; in test [9] it was 16.5 µM; in test [10] it was 19.8 µM.
As to `COC(=O)[C@@H](C)C[C@H](Cc1ccccc1)NC(=O)c1csc([C@@H](C[C@H](C(C)C)N(C)C(=O)[C@@H](NC(=O)[C@H]2CCCCN2C)C2CC2)OC(C)=O)n1`, the GI50 in test [1] was 0.000292 µM and 0.00165 µM; in [2], 0.000344 µM; in [3] it was 0.000225 µM and 0.00165 µM; in test [5] it was 0.0027 µM and 0.00165 µM; in [6], 0.000562 µM and 0.00165 µM; in test [7] it was 0.00384 µM and 0.00604 µM. Moreover, the GI50 was 0.000456 µM and 0.00165 µM in [8]; 0.000506 µM and 0.00165 µM in test [9]; 0.00464 µM and 0.00165 µM in [10]. Besides, the TGI in test [1], in [3], in test [4], in test [5], in [6] and in [7] was over 16.5 µM each time. The TGI in test [8] was over 16.5 µM; in test [9] it was 0.0298 µM and 0.0146 µM; in test [10], over 16.5 µM.
As to `Oc1ccc2oc3ncc(Br)c(-c4ccccc4)c3c2c1`, the GI50 in test [1], in [2], in [3], in [4], in [5] and in [6] was over 100 µM each time. Further, the GI50 in [7] is over 100 µM; in test [8] it was over 100 µM; in test [9] it was 76.9 µM; in test [10] it was over 100 µM. The TGI in [1], in [2], in [3], in [4], in test [5] and in [6] was over 100 µM throughout. For the same molecule, the TGI in test [7], in [8], in test [9] and in test [10] was over 100 µM in each case.
Turning to `C=C1C(=O)O[C@H]2[C@H]1CC/C(Cn1cc(-c3ccccc3C(F)(F)F)nn1)=C\CC[C@@]1(C)O[C@@H]21`, the GI50 was 1.24 µM in test [1]; 2.45 µM in test [2]; 1.87 µM in test [3]; 1.48 µM in [4]; 7.23 µM in [5]; 1.11 µM in test [6]. In addition, the GI50 was 2.46 µM in [7], 1.84 µM in [8], 2.4 µM in [9] and 3.03 µM in test [10]. Besides, the TGI is 3.33 µM in [1]; 5.78 µM in test [2]; 8.49 µM in [3]; 3.47 µM in test [4]; 21.8 µM in test [5]; 2.35 µM in test [6]. The TGI is 8.95 µM in test [7], 3.92 µM in test [8], 8.28 µM in test [9] and 10.9 µM in [10].
